According to PubChem BioAssay (NCI):
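These data come from cells grown in 96-well plates and exposed to compound for 48 hours at five concentrations. TGI denotes the concentration required for complete inhibition of growth.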

Tests used:
Assay in all cases: NCI anticancer screen, dose series, 48 h
COLO 205 colon = system: COLO 205 colon
OVCAR-3 ovarian = system: OVCAR-3 ovarian
HL-60(TB) leukemia = system: HL-60(TB) leukemia
SNB-75 CNS = system: SNB-75 CNS
HCT-15 colon = system: HCT-15 colon
LOX IMVI melanoma = system: LOX IMVI melanoma
TK-10 renal = system: TK-10 renal
SF-268 CNS = system: SF-268 CNS
U251 CNS = system: U251 CNS
UO-31 renal = system: UO-31 renal
RXF 393 renal = system: RXF 393 renal
KM20L2 colon = system: KM20L2 colon
HCC-2998 colon = system: HCC-2998 colon
786-0 renal = system: 786-0 renal
RXF-631 renal = system: RXF-631 renal
NCI-H460 lung = system: NCI-H460 lung
DMS 114 small cell lung = system: DMS 114 small cell lung
ACHN renal = system: ACHN renal
HT29 colon = system: HT29 colon
HOP-92 NSCLC = system: HOP-92 NSCLC
UACC-257 melanoma = system: UACC-257 melanoma
SK-MEL-2 melanoma = system: SK-MEL-2 melanoma
A549 NSCLC = system: A549 NSCLC
DLD-1 colon = system: DLD-1 colon
MOLT-4 leukemia = system: MOLT-4 leukemia
SN12C renal = system: SN12C renal
M19-MEL melanoma = system: M19-MEL melanoma
SF-295 CNS = system: SF-295 CNS
RPMI-8226 leukemia = system: RPMI-8226 leukemia
HCT-116 colon = system: HCT-116 colon
KM12 colon = system: KM12 colon
OVCAR-4 ovarian = system: OVCAR-4 ovarian
DMS 273 small cell lung = system: DMS 273 small cell lung
SF-539 CNS = system: SF-539 CNS
HOP-62 NSCLC = system: HOP-62 NSCLC
EKVX NSCLC = system: EKVX NSCLC
NCI-H522 lung = system: NCI-H522 lung
XF 498 CNS = system: XF 498 CNS
IGROV1 ovarian = system: IGROV1 ovarian
SK-MEL-5 melanoma = system: SK-MEL-5 melanoma
OVCAR-5 ovarian = system: OVCAR-5 ovarian
SK-MEL-28 melanoma = system: SK-MEL-28 melanoma
UACC-62 melanoma = system: UACC-62 melanoma
CCRF-CEM leukemia = system: CCRF-CEM leukemia
NCI-H23 lung = system: NCI-H23 lung
M14 melanoma = system: M14 melanoma
LXFL 529 NSCLC = system: LXFL 529 NSCLC
K-562 leukemia = system: K-562 leukemia
OVCAR-8 ovarian = system: OVCAR-8 ovarian
SW-620 colon = system: SW-620 colon
SNB-19 CNS = system: SNB-19 CNS
MALME-3M melanoma = system: MALME-3M melanoma
SNB-78 CNS = system: SNB-78 CNS
SR leukemia = system: SR leukemia
BT-549 breast = system: BT-549 breast
NCI-H226 lung = system: NCI-H226 lung
CAKI-1 renal = system: CAKI-1 renal
MDA-MB-231 breast = system: MDA-MB-231 breast
SK-OV-3 ovarian = system: SK-OV-3 ovarian
HS 578T breast = system: HS 578T breast
A498 renal = system: A498 renal
MCF7 breast = system: MCF7 breast
MDA-MB-435 = system: MDA-MB-435
NCI/ADR-RES ovarian = system: NCI/ADR-RES ovarian
DU-145 prostate = system: DU-145 prostate
T-47D breast = system: T-47D breast
MDA-N = system: MDA-N
PC-3 prostate = system: PC-3 prostate

Cc1cc2c(c3c1c1ccccc1n3C)C(=O)c1ccccc1C2=O
TGI (COLO 205 colon): > 100 µM | TGI (OVCAR-3 ovarian): > 100 µM | TGI (HL-60(TB) leukemia): > 100 µM | TGI (SNB-75 CNS): > 100 µM | TGI (HCT-15 colon): > 100 µM | TGI (LOX IMVI melanoma): > 100 µM | TGI (TK-10 renal): > 100 µM | TGI (SF-268 CNS): > 100 µM | TGI (U251 CNS): > 100 µM | TGI (UO-31 renal): > 100 µM | TGI (RXF 393 renal): > 100 µM | TGI (KM20L2 colon): > 100 µM | TGI (HCC-2998 colon): > 100 µM | TGI (786-0 renal): > 100 µM | TGI (RXF-631 renal): > 100 µM | TGI (NCI-H460 lung): > 100 µM | TGI (DMS 114 small cell lung): > 100 µM | TGI (ACHN renal): > 100 µM | TGI (HT29 colon): > 100 µM | TGI (HOP-92 NSCLC): > 100 µM | TGI (UACC-257 melanoma): > 100 µM | TGI (SK-MEL-2 melanoma): > 100 µM | TGI (A549 NSCLC): > 100 µM | TGI (DLD-1 colon): > 100 µM | TGI (MOLT-4 leukemia): > 100 µM | TGI (SN12C renal): > 100 µM | TGI (M19-MEL melanoma): > 100 µM | TGI (SF-295 CNS): > 100 µM | TGI (RPMI-8226 leukemia): > 100 µM | TGI (HCT-116 colon): > 100 µM | TGI (KM12 colon): > 100 µM | TGI (OVCAR-4 ovarian): > 100 µM | TGI (DMS 273 small cell lung): > 100 µM | TGI (SF-539 CNS): > 100 µM | TGI (HOP-62 NSCLC): > 100 µM | TGI (EKVX NSCLC): > 100 µM | TGI (NCI-H522 lung): > 100 µM | TGI (XF 498 CNS): > 100 µM | TGI (IGROV1 ovarian): > 100 µM | TGI (SK-MEL-5 melanoma): > 100 µM | TGI (OVCAR-5 ovarian): > 100 µM | TGI (SK-MEL-28 melanoma): > 100 µM | TGI (UACC-62 melanoma): > 100 µM | TGI (CCRF-CEM leukemia): > 100 µM | TGI (NCI-H23 lung): > 100 µM | TGI (M14 melanoma): > 100 µM | TGI (LXFL 529 NSCLC): > 100 µM | TGI (K-562 leukemia): > 100 µM | TGI (OVCAR-8 ovarian): > 100 µM | TGI (SW-620 colon): > 100 µM | TGI (SNB-19 CNS): > 100 µM | TGI (MALME-3M melanoma): > 100 µM | TGI (SNB-78 CNS): > 100 µM

O=[As]O
TGI (SR leukemia): > 71.5 µM | TGI (COLO 205 colon): > 100 µM | TGI (BT-549 breast): > 100 µM | TGI (OVCAR-3 ovarian): > 74.1 µM | TGI (NCI-H226 lung): > 100 µM | TGI (HL-60(TB) leukemia): 18.5 µM | TGI (SNB-75 CNS): 97.2 µM | TGI (HCT-15 colon): > 100 µM | TGI (LOX IMVI melanoma): 96.9 µM | TGI (TK-10 renal): > 100 µM | TGI (SF-268 CNS): > 74.4 µM | TGI (CAKI-1 renal): > 100 µM | TGI (MDA-MB-231 breast): > 100 µM | TGI (U251 CNS): > 52.8 µM | TGI (UO-31 renal): > 100 µM | TGI (RXF 393 renal): > 93.5 µM | TGI (KM20L2 colon): > 100 µM | TGI (SK-OV-3 ovarian): > 100 µM | TGI (HS 578T breast): > 100 µM | TGI (HCC-2998 colon): > 100 µM | TGI (786-0 renal): > 100 µM | TGI (RXF-631 renal): 22.5 µM | TGI (NCI-H460 lung): > 100 µM | TGI (DMS 114 small cell lung): 40.3 µM | TGI (ACHN renal): > 100 µM | TGI (HT29 colon): > 100 µM | TGI (HOP-92 NSCLC): > 91.5 µM | TGI (A498 renal): > 100 µM | TGI (MCF7 breast): > 100 µM | TGI (UACC-257 melanoma): > 93.3 µM | TGI (SK-MEL-2 melanoma): > 100 µM | TGI (A549 NSCLC): > 100 µM | TGI (DLD-1 colon): > 100 µM | TGI (MOLT-4 leukemia): > 100 µM | TGI (SN12C renal): > 95.1 µM | TGI (M19-MEL melanoma): 63.6 µM | TGI (SF-295 CNS): > 100 µM | TGI (RPMI-8226 leukemia): > 100 µM | TGI (HCT-116 colon): > 100 µM | TGI (KM12 colon): > 100 µM | TGI (OVCAR-4 ovarian): > 100 µM | TGI (DMS 273 small cell lung): > 100 µM | TGI (SF-539 CNS): > 54.3 µM | TGI (MDA-MB-435): > 100 µM | TGI (HOP-62 NSCLC): > 100 µM | TGI (EKVX NSCLC): > 100 µM | TGI (NCI-H522 lung): > 60.5 µM | TGI (XF 498 CNS): 36.8 µM | TGI (NCI/ADR-RES ovarian): > 100 µM | TGI (IGROV1 ovarian): > 60.4 µM | TGI (SK-MEL-5 melanoma): > 61.8 µM | TGI (OVCAR-5 ovarian): > 100 µM | TGI (DU-145 prostate): > 100 µM | TGI (SK-MEL-28 melanoma): > 100 µM | TGI (UACC-62 melanoma): > 59.3 µM | TGI (CCRF-CEM leukemia): > 66.8 µM | TGI (NCI-H23 lung): > 100 µM | TGI (M14 melanoma): > 96.1 µM | TGI (LXFL 529 NSCLC): > 100 µM | TGI (T-47D breast): > 100 µM | TGI (K-562 leukemia): > 89.5 µM | TGI (OVCAR-8 ovarian): > 70.1 µM | TGI (SW-620 colon): > 100 µM | TGI (MDA-N): > 100 µM | TGI (SNB-19 CNS): > 100 µM | TGI (MALME-3M melanoma): > 59.9 µM | TGI (SNB-78 CNS): > 100 µM | TGI (PC-3 prostate): > 100 µM
